Holding throughout (assay type): cell-based
One assay concerns C4-2B cells. Description: MTT cell viability / IC50 assay, C4-2B. The note with it: Homo sapiens, 48 h. The method, then: (§1) Cell culture: In the following examples, unless otherwise specified, all cell lines are purchased from American Type Culture Collection and cultured in American Type Culture Collection (ATCC)-recommended media, with fetal bovine serum (FBS) to a final concentration of 10% and 1× penicillin/streptomycin at 37° C. with 5% CO2 in a cell culture incubator, unless otherwise specified. Unless otherwise specified, culture is 2D. Where culture is 3D, low attachment plates are used, with the same media. C4-2B (ATCC® CRL-3315™, human prostate cancer cells of epithelial morphology) parental cell line and drug-resistant cells derived therefrom) are cultured in RPMI-1640 with 10% FBS. MDVR cells (an Enzalutamide-resistant variety of C4-2B prostate cancer cells formed as described below) are cultured as indicated for the parental C4-2B cells. Caki-1 cells (human clear cell renal cell carcinoma cells) are cultured in ATCC-formulated McCoy's 5a Medium Modified (ATCC Catalog No. 30-2007) with 10% FBS. […]
(§2) Each of the cell lines is treated either with a THAD (e.g. DZ-DHA-ether, MI-148-bis-DHA), or for comparison, with the DHA mono-ester “DZ-DHA”; alternatively/additionally, DZ1 and/or unconjugated DHA may serve as comparants. […] The absorbance density of the supernatant is read on a 96-well microplate reader at wavelength 595 nm. […]

The subject of another assay is H358 cells. Description: MTT cell viability / IC50 assay, H358. The note with it: Homo sapiens, NCI-H358, 48 h. As to the method:
as §1, §2

The next assay deals with BxPC3 cells. Description: MTT cell viability / IC50 assay, BxPC3. The note with it: Homo sapiens, BXPC-3; BxPC3, 48 h. The method, then:
as §1, §2

The test system of a further assay is DU145 cells. Description: MTT cell viability / IC50 assay, DU145. The note with it: Homo sapiens, DU-145; DU145, 48 h. As to the method: as §1, §2
Assay [1] deals with MDVR cells (Enzalutamide-resistant C4-2B prostate cancer cells). Description: MTT cell viability / IC50 assay, MDVR. The note with it: Homo sapiens. The method, then:
Cell culture: In the following examples, unless otherwise specified, all cell lines are purchased from American Type Culture Collection and cultured in American Type Culture Collection (ATCC)-recommended media, with fetal bovine serum (FBS) to a final concentration of 10% and 1× penicillin/streptomycin at 37° C. with 5% CO2 in a cell culture incubator, unless otherwise specified. Unless otherwise specified, culture is 2D. Where culture is 3D, low attachment plates are used, with the same media. C4-2B (ATCC® CRL-3315™, human prostate cancer cells of epithelial morphology) parental cell line and drug-resistant cells derived therefrom) are cultured in RPMI-1640 with 10% FBS. MDVR cells (an Enzalutamide-resistant variety of C4-2B prostate cancer cells formed as described below) are cultured as indicated for the parental C4-2B cells. Caki-1 cells (human clear cell renal cell carcinoma cells) are cultured in ATCC-formulated McCoy's 5a Medium Modified (ATCC Catalog No. 30-2007) with 10% FBS. PC3 cells (ATCC® CRL-1435™, a human prostate cancer cell line of epithelial morphology initiated from a bone metastasis of a grade IV prostatic adenocarcinoma) are cultured in F-12K with 10% FBS. 22RV1 Prostate Cancer (PC) cells (ATCC® CRL-2505™, a human prostate carcinoma cell line of epithelial morphology) are cultured in RPMI-1640 with 10% FBS. DU145 cells (ATCC® HTB-81™, a human cell line derived from a prostate-originating brain metastase, not detectably hormone sensitive, not expressing prostate antigen; forms adenocarcinoma grade II in nude mice) are cultured in ATCC-formulated Eagle's Minimum Essential Medium (EMEM, Catalog No. 30-2003). H446 cells (ATCC® HTB-171™, a human small cell carcinoma SC lung cancer (SCLC) cell line derived from a metastatic site) are cultured in RPMI-1640 with 10% FBS. H358 cells (ATCC® CRL-5807™, a human non-small cell lung cancer (NSCLC) cell line that expresses protein and RNA of SP-A, the major lung surfactant associated protein, and produces tumors in athymic nude mice) are cultured in RPMI-1640 Medium with 10% FBS. BxPC3 cells (ATCC® CRL-1687™, an adenocarcinoma-derived pancreatic cancer cell line that expresses pancreas cancer specific antigen and carcinoembryonic antigen and forms tumors in nude mice) are cultured in RPMI-1640 with 10% FBS.
Resistant prostate cancer cell lines MDVR and AbiR: MDVR cells are Enzalutamide-resistant cells, AbiR are Abiraterone acetate resistant cells, formed from parental C4-2B prostate cancer cells as follows. A cell assay is performed exposing cells cultured as described above to various drugs indicated below for 72 hours. Parental C4-2B cells are C4-2B non-resistant cells not previously exposed to cancer drugs. Drug-resistant C4-2B cells are created by prolonged exposure to the relevant drug, i.e. Enzalutamide for MDVR, and Abiraterone acetate for AbiR cells, at initially sub-lethal and gradually increasing concentrations until resistance is achieved.
Example 1: A cell assay is performed exposing cells cultured as described above to various drugs indicated below for 24 hours unless otherwise indicated. Each of the cell lines is treated either with a THAD (e.g. DZ-DHA-ether, MI-148-bis-DHA), or for comparison, with the DHA mono-ester “DZ-DHA”; alternatively/additionally, DZ1 and/or unconjugated DHA may serve as comparants. For each cell line, the IC50 is determined for each drug in concentrations from 0 to 100 μM. […] In the controls (not shown in the figures), the cells are exposed to DMSO (vehicle) for a final concentration that equals the highest concentration of the drug tested, to a maximum concentration less than 0.1% v/v. 4 hours before culture end/SDS addition, 10 μL MTT (3-(4,5-Dimethyl-2-thiazolyl)-2,5-diphenyl-2H-tetrazolium bromide, Sigma-Aldrich) is added to wells containing the cells. At the end of culture, 100 μl 10% SDS is added and then the plate containing the cells is placed in a 37° C. cell culture incubator for 8 hours. […]

By IC50 is commonly meant the concentration needed to halve the response being measured.

Like-named read-outs stand apart in the source and are kept apart here.

Regarding `C[C@H]1[C@@H](O)O[C@@H]2O[C@@]3(C)CC[C@H]4[C@H](C)CC[C@@H]1[C@@]24OO3` [DHA, dihydroartemisinin], the IC50 with C4-2B cells came to 188 µM; with H358 cells it was 7.32 µM; in the assay with BxPC3 cells, 50.7 µM; in the assay with DU145 cells, 295 µM; in assay [1] (MDVR, 48 h, read-out: IC50), 390 µM.
On to `C[C@@H]1CC[C@H]2[C@@H](C)C(OC(=O)CCCCCN3/C(=C/C=C4\CCCC(/C=C/C5=[N+](CCCCS(=O)(=O)[O-])c6ccccc6C5(C)C)=C4Cl)C(C)(C)c4ccccc43)O[C@@H]3OC4(C)CC[C@@H]1[C@]32OO4` (stereo in doubt) [DZ3a], for which the IC50 was 5 µM with C4-2B cells; 2.6 µM with H358 cells; 9.8 µM in the assay on BxPC3 cells; 8.1 µM with DU145 cells; 3.8 µM in assay [1] (ENZ-resistant C4-2B cells (MDVR), unit inferred, read-out: IC50 (FIG. 2B description)); 3.8 to 5.9 µM in assay [1] (MDVR, 24 hours, relative IC50, read-out: IC50). In addition, the IC50 in assay [1] (MDVR, 48 h, read-out: IC50) turned out to be 5.9 µM.

Source of the values: patent publication US20230226198A1, “Artemisinin Derivatives” (DA ZEN THERANOSTICS, INC., priority 2019, published 2023).
